Values after ≈ are worked out from the molar mass of the structure shown.
Key:
[1] = test system: Salmonella typhimurium; assay: Antibacterial activity against Salmonella typhimurium RCMB 010072 after 24 hrs by twofold serial dilution technique; type: functional, Salmonella enterica subsp. enterica serovar Typhimurium; conditions: Salmonella enterica, RCMB 010072, 24 h
[2] = test system: Enterococcus faecalis; assay: Antibacterial activity against Enterococcus faecalis RCMB 010068 at 100 umol/ml after 24 hrs by well diffusion assay; type: functional
[3] = test system: Enterococcus faecalis; assay: Antibacterial activity against Enterococcus faecalis RCMB 010068 after 24 hrs by twofold serial dilution technique; type: functional; conditions: RCMB 010068, 24 h
[4] = test system: Streptococcus pneumoniae; assay: Antibacterial activity against Streptococcus pneumoniae RCMB 010010 at 100 umol/ml after 24 hrs by well diffusion assay; type: functional
[5] = test system: Staphylococcus aureus; assay: Antibacterial activity against Staphylococcus aureus RCMB 010028 after 24 hrs by twofold serial dilution technique; type: functional; conditions: RCMB 010028, 24 h
[6] = test system: Salmonella typhimurium; assay: Antibacterial activity against Salmonella typhimurium RCMB 010072 at 100 umol/ml after 24 hrs by well diffusion assay; type: functional, Salmonella enterica subsp. enterica serovar Typhimurium
[7] = test system: Escherichia coli; assay: Antibacterial activity against Escherichia coli RCMB 010052 after 24 hrs by twofold serial dilution technique; type: functional; conditions: RCMB 010052, 24 h
[8] = test system: Staphylococcus aureus; assay: Antibacterial activity against Staphylococcus aureus RCMB 010028 at 100 umol/ml after 24 hrs by well diffusion assay; type: functional
[9] = test system: Streptococcus pneumoniae; assay: Antibacterial activity against Streptococcus pneumoniae RCMB 010010 after 24 hrs by twofold serial dilution technique; type: functional; conditions: RCMB 010010, 24 h
[10] = test system: Escherichia coli; assay: Antibacterial activity against Escherichia coli RCMB 010052 at 100 umol/ml after 24 hrs by well diffusion assay; type: functional

MIC [1] [mM]	MIC [3] [mM]	MIC [5] [mM]	MIC [7] [mM]	MIC [9] [mM]	Structure (SMILES)	diameter of the inhibition zone (DIZ) [2] [mm]	diameter of the inhibition zone (DIZ) [4] [mm]	diameter of the inhibition zone (DIZ) [6] [mm]	diameter of the inhibition zone (DIZ) [8] [mm]	diameter of the inhibition zone (DIZ) [10] [mm]
6.25 (≈ 3200 µg/mL)	1.56 (≈ 800 µg/mL)	0.39 (≈ 200 µg/mL)	25 (≈ 12800 µg/mL)	0.39 (≈ 200 µg/mL)	O=C(Cn1nc(-c2ccccc2)c2ccccc2c1=O)Nc1ccc(S(=O)(=O)Nc2ncccn2)cc1	20.3	22.3	18.2	22.3	16.1
12.5 (≈ 5430 µg/mL)	25 (≈ 10900 µg/mL)	1.56 (≈ 678 µg/mL)	12.5 (≈ 5430 µg/mL)	12.5 (≈ 5430 µg/mL)	NS(=O)(=O)c1ccc(NC(=O)Cn2nc(-c3ccccc3)c3ccccc3c2=O)cc1	15.9	16.8	16.9	19.4	16.8
3.12 (≈ 1400 µg/mL)	50 (≈ 22400 µg/mL)	0.78 (≈ 350 µg/mL)	6.25 (≈ 2800 µg/mL)	25 (≈ 11200 µg/mL)	NS(=O)(=O)c1ccc(NC(=O)Cn2nc(Cc3ccccc3)c3ccccc3c2=O)cc1	15.3	16.2	18.24	21	17.6
1.56 (≈ 747 µg/mL)	25 (≈ 12000 µg/mL)	0.39 (≈ 187 µg/mL)	3.12 (≈ 1490 µg/mL)	6.25 (≈ 2990 µg/mL)	COc1ccc(Cc2nn(CC(=O)Nc3ccc(S(N)(=O)=O)cc3)c(=O)c3ccccc23)cc1	16.2	18.2	20	22	19.6
1.56 (≈ 768 µg/mL)	12.5 (≈ 6160 µg/mL)	0.39 (≈ 192 µg/mL)	3.12 (≈ 1540 µg/mL)	6.25 (≈ 3080 µg/mL)	COc1ccc(Cc2nn(CCC(=O)Nc3ccc(S(N)(=O)=O)cc3)c(=O)c3ccccc23)cc1	16.7	18.3	21	22.3	19.9
0.78 (≈ 404 µg/mL)	25 (≈ 12900 µg/mL)	12.5 (≈ 6470 µg/mL)	25 (≈ 12900 µg/mL)	1.56 (≈ 807 µg/mL)	O=C(Cn1nc(-c2ccccc2)c2ccccc2c1=O)Nc1ccc(S(=O)(=O)Nc2nccs2)cc1	17	20.3	21	18.3	16.3
0.78 (≈ 431 µg/mL)	25 (≈ 13800 µg/mL)	3.12 (≈ 1720 µg/mL)	0.39 (≈ 215 µg/mL)	1.56 (≈ 861 µg/mL)	O=C(Cn1nc(-c2ccc(Cl)cc2)c2ccccc2c1=O)Nc1ccc(S(=O)(=O)Nc2nccs2)cc1	17.2	20.2	21.4	19.9	22.2
3.12 (≈ 1740 µg/mL)	50 (≈ 27800 µg/mL)	6.25 (≈ 3480 µg/mL)	25 (≈ 13900 µg/mL)	25 (≈ 13900 µg/mL)	COc1ccc(Cc2nn(CC(=O)Nc3ccc(S(=O)(=O)Nc4ncccn4)cc3)c(=O)c3ccccc23)cc1	15.2	16.3	19.3	18.6	16.9
25 (≈ 14300 µg/mL)	25 (≈ 14300 µg/mL)	3.12 (≈ 1780 µg/mL)	50 (≈ 28500 µg/mL)	50 (≈ 28500 µg/mL)	COc1ccc(Cc2nn(CCC(=O)Nc3ccc(S(=O)(=O)Nc4ncccn4)cc3)c(=O)c3ccccc23)cc1	17.2	15.7	17.4	19.8	16.2
50 (≈ 12500 µg/mL)	100 (≈ 25000 µg/mL)	6.25 (≈ 1560 µg/mL)	100 (≈ 25000 µg/mL)	100 (≈ 25000 µg/mL)	Nc1ccc(S(=O)(=O)Nc2ncccn2)cc1 [SULFADIAZINE]	13.7	14.2	15	18.3	14.2
100 (≈ 17200 µg/mL)	100 (≈ 17200 µg/mL)	12.5 (≈ 2150 µg/mL)	25 (≈ 4310 µg/mL)	25 (≈ 4310 µg/mL)	Nc1ccc(S(N)(=O)=O)cc1 [SULFANILAMIDE]	14.2	15.8	14.2	16.8	15.8
12.5 (≈ 3190 µg/mL)	50 (≈ 12800 µg/mL)	50 (≈ 12800 µg/mL)	100 (≈ 25500 µg/mL)	25 (≈ 6380 µg/mL)	Nc1ccc(S(=O)(=O)Nc2nccs2)cc1 [SULFATHIAZOLE]	14.9	15.8	17.2	15	13.8

Reference: ChEMBL document CHEMBL3351668, “Improvement of antibacterial activity of some sulfa drugs through linkage to certain phthalazin-1(2H)-one scaffolds” (2014)
